From ChEMBL document CHEMBL4340552, “Identification of BMI1 promoter inhibitors from Streptomyces sp. IFM-11958” (Bioorg Med Chem, 2019) come the findings set out here.

The IC50 is the concentration needed to halve the response being measured.

Experiment [1] has as its system Huh-7. Put plainly: Cytotoxicity against human HuH7 cells assessed as reduction in cell viability incubated for 24 hrs by FMCA method. Type of experiment: functional, cell-based. The settings on record: Huh-7, 24 h.
Experiment [2] deals with DU-145. Put plainly: Up-regulation of p16Ink4a mRNA expression in human DU145 cells incubated for 24 hrs by Quantitative RT-PCR analysis. Type of experiment: functional, cell-based.
The test system of experiment [3] is DU-145. Put plainly: Cytotoxicity against human DU145 cells assessed as reduction in cell viability incubated for 24 hrs by FMCA method. Format: functional, cell-based. Particulars: DU-145, 24 h.
In experiment [4] the test system is DU-145. Put plainly: Down-regulation of c-Myc protein expression in human DU145 cells incubated for 24 hrs by Western blot analysis. Format: functional, cell-based.
In experiment [5] the test system is DU-145. As to the kind of experiment: Down-regulation of BMI1 mRNA expression in human DU145 cells incubated for 24 hrs by Quantitative RT-PCR analysis. Type of experiment: functional, cell-based.
Experiment [6] relates to Huh-7. Put plainly: Inhibition of sphere formation in human HuH7 cells incubated for 72 hrs by sphere forming assay. Type of experiment: functional, cell-based.
Experiment [7] concerns HEK293. As to the kind of experiment: Cytotoxicity against HEK293 cells assessed as reduction in cell viability incubated for 24 hrs by FMCA method. Format: cell-based. Particulars: Homo sapiens, HEK293, 24 h.
Experiment [8] concerns DU-145. Put plainly: Down-regulation of BMI1 protein expression in human DU145 cells incubated for 24 hrs by Western blot analysis. Format: functional, cell-based. A general note: In western blotting, separated proteins are transferred to a membrane and probed.
Experiment [9] is described as follows: Inhibition of BMI1 promoter in HEK293T cells incubated for 24 hrs by luciferase reporter gene assay. The settings on record: Homo sapiens, HEK-293T. Format: cell-based. (A reporter such as luciferase makes a cellular process visible.)

With `CC[C@@H]1[C@@H](C)O[C@@](O)([C@@H](C)[C@H](O)[C@H](C)[C@H]2OC(=O)/C=C/C=C/[C@H](C)[C@@H]([C@@H](C)[C@@H](O)[C@H](C)[C@@]3(O)C[C@@H](O[C@H]4C[C@H](O)[C@H](O)[C@H](C)O4)[C@H](CC)[C@@H](C)O3)OC(=O)/C=C/C=C/[C@@H]2C)C[C@H]1O[C@H]1C[C@H](O)[C@H](O)[C@H](C)O1`, the half-inhibitory concentration (IC50) in experiment [1] was 4.2 nM; in [3], 31 nM; in experiment [7] it was 200 nM; in [9], 30 nM. In addition, the Activity entry in [2] and in experiment [5] was “Dose-dependent effect” in each case. Further, the inhibition result in experiment [4], in experiment [6] and in experiment [8] was “Dose-dependent effect” in each case.
`CC[C@@H]1[C@@H](C)O[C@@](O)([C@@H](C)[C@H](O)[C@H](C)[C@H]2OC(=O)/C=C/C=C/[C@H](C)[C@@H]([C@@H](C)[C@@H](O)[C@H](C)[C@@]3(O)C[C@@H](O[C@H]4C[C@H](O)[C@H](O)[C@H](C)O4)[C@H](CC)[C@@H](C)O3)OC(=O)/C(C)=C/C=C/[C@@H]2C)C[C@H]1O[C@H]1C[C@H](O)[C@H](O)[C@H](C)O1` yielded an IC50 in experiment [9] of 447 nM.
On to `O=C1CCC(=O)N(O)CCCCCNC(=O)CCC(=O)N(O)CCCCCNC(=O)CCC(=O)N(O)CCCCCN1` [NOCARDAMINE], for which, in experiment [9], half-maximal inhibition (IC50) was put at 22000 nM.
